From patent publication US20220112187A1, “PYRAZOLOPYRIDINE AMINE COMPOUNDS FOR THE TREATMENT OF AUTOIMMUNE DISEASE” (Hoffmann-La Roche Inc., priority 2018, published 2022) come the findings set out here.

The target of the assay is T1, human TLR8 (Homo sapiens, UniProt Q9NR97).
T1 sequence (Q9NR97 27-1041): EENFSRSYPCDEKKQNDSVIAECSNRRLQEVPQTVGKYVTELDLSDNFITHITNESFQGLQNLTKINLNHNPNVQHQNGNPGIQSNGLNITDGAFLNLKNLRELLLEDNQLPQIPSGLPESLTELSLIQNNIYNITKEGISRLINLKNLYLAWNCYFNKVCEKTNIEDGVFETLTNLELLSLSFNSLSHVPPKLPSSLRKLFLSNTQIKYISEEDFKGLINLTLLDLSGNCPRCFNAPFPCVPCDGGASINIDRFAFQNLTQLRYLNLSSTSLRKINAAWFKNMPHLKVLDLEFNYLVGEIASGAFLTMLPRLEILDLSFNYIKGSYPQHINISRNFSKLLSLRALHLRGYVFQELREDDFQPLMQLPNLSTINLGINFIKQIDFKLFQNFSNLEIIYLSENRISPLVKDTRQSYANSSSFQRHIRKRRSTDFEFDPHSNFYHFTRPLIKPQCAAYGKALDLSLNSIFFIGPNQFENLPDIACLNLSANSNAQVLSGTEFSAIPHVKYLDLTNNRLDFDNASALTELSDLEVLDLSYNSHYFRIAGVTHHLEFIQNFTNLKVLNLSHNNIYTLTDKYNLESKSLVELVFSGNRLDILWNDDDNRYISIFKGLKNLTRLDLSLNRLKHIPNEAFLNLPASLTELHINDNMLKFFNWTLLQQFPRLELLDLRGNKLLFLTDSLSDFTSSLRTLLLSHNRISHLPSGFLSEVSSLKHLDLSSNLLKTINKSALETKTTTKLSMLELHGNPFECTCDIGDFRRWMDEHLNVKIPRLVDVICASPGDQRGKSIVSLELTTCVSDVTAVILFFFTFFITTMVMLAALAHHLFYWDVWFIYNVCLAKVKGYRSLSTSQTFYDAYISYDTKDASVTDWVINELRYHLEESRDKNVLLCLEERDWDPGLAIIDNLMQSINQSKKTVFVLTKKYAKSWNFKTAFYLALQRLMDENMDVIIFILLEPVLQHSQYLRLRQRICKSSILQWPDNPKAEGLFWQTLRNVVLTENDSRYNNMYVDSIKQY
Briefly: HEK293-Blue-hTLR-8 cells assay (SEAP reporter, R848 stimulation). Format: cell-based. As to conditions: HEK293-Blue-hTLR8 cells, R848 ligand, 20 hrs incubation. The gist of the method: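 Antagonist mode: HEK293-Blue-hTLR8 cells with serially diluted compound (1% DMSO final) plus R848 (10 μL of 60 uM stock) for 20 hrs at 37° C. Supernatant NF-κB/AP-1-driven SEAP measured with QUANTI-Blue substrate, 2 hrs at 37° C, absorbance 620–655 nm.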

As to `C[C@@H]1CN(c2ccc(C#N)n3nccc23)C[C@H](CN2CCC3NCC3C2)O1` (stereo partly drawn) [Example 70, 4-[(2S,6R)-2-(3,7-diazabicyclo[4.2.0]octan-3-ylmethyl)-6-methyl-morpholin-4-yl]pyrazolo[1,5-a]pyridine-7-carbonitrile], 120 nM corresponded to half-maximal inhibition (IC50).
The figure for `C[C@@H]1CN(c2ccc(C#N)n3nccc23)C[C@H](CN2CCC23CNC3)O1` [Example 55, 4-[(2S,6R)-2-(1,6-diazaspiro[3.3]heptan-1-ylmethyl)-6-methyl-morpholin-4-yl]pyrazolo[1,5-a]pyridine-7-carbonitrile] is 870 nM; for `C[C@@H]1CN(c2ccc(C#N)n3nccc23)C[C@H](CN2CCCC3(CCNC3)C2)O1` (stereo partly drawn) [Example 44, 4-[(2S,6R)-2-(2,7-diazaspiro[4.5]decan-7-ylmethyl)-6-methyl-morpholin-4-yl]pyrazolo[1,5-a]pyridine-7-carbonitrile] it is 25 nM; for `C[C@@H]1CN(c2ccc(C#N)n3nccc23)C[C@H](CN2CCC[C@@H]3NCCC32)O1` (stereo partly drawn) [Example 63, 4-[(2R,6S)-2-methyl-6-[[cis-(3aS,7aS)-1,2,3,3a,5,6,7,7a-octahydropyrrolo[3,2-b]pyridin-4-yl]methyl]morpholin-4-yl]pyrazolo[1,5-a]pyridine-7-carbonitrile] it is 44 nM.
To `C[C@@H]1CN(c2ccc(C#N)n3nccc23)C[C@H](CN2CC[C@@H]3CNCC32)O1` (stereo partly drawn) [Example 62, 4-[(2R,6S)-2-methyl-6-[[cis-(3aR,6aR)-3,3a,4,5,6,6a-hexahydro-2H-pyrrolo[3,4-b]pyrrol-1-yl]methyl]morpholin-4-yl]pyrazolo[1,5-a]pyridine-7-carbonitrile] belongs 260 nM.

In general, IC50 refers to the midpoint of a concentration-inhibition curve. A higher IC50 goes with lower potency.
